Data published in PubChem BioAssay (NCI).
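Cells were grown in 96-well plates and exposed to each compound for 48 hours at five concentrations; endpoints were interpolated linearly between bracketing concentrations, or set to the highest concentration if not reached. Abbreviation: GI50, concentration required for 50% inhibition of growth. Definition used: TGI = concentration required for complete inhibition of growth.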

Experiments:
Assay in all cases: NCI anticancer screen, dose series, 48 h
SK-OV-3 ovarian = tested on: SK-OV-3 ovarian
NCI-H23 lung = tested on: NCI-H23 lung
OVCAR-3 ovarian = tested on: OVCAR-3 ovarian
IGROV1 ovarian = tested on: IGROV1 ovarian
K-562 leukemia = tested on: K-562 leukemia
SK-MEL-2 melanoma = tested on: SK-MEL-2 melanoma
HOP-62 NSCLC = tested on: HOP-62 NSCLC
CCRF-CEM leukemia = tested on: CCRF-CEM leukemia
HS 578T breast = tested on: HS 578T breast
HL-60(TB) leukemia = tested on: HL-60(TB) leukemia
A549 NSCLC = tested on: A549 NSCLC
OVCAR-4 ovarian = tested on: OVCAR-4 ovarian
786-0 renal = tested on: 786-0 renal
NCI-H522 lung = tested on: NCI-H522 lung
HCC-2998 colon = tested on: HCC-2998 colon
EKVX NSCLC = tested on: EKVX NSCLC
MALME-3M melanoma = tested on: MALME-3M melanoma
MOLT-4 leukemia = tested on: MOLT-4 leukemia
RPMI-8226 leukemia = tested on: RPMI-8226 leukemia
SW-620 colon = tested on: SW-620 colon
COLO 205 colon = tested on: COLO 205 colon
MDA-MB-468 breast = tested on: MDA-MB-468 breast
OVCAR-8 ovarian = tested on: OVCAR-8 ovarian
SK-MEL-28 melanoma = tested on: SK-MEL-28 melanoma
U251 CNS = tested on: U251 CNS
SF-268 CNS = tested on: SF-268 CNS
M14 melanoma = tested on: M14 melanoma
ACHN renal = tested on: ACHN renal
SN12C renal = tested on: SN12C renal
NCI-H460 lung = tested on: NCI-H460 lung
SNB-75 CNS = tested on: SNB-75 CNS
DU-145 prostate = tested on: DU-145 prostate
SF-295 CNS = tested on: SF-295 CNS
UACC-257 melanoma = tested on: UACC-257 melanoma
RXF 393 renal = tested on: RXF 393 renal
A498 renal = tested on: A498 renal
NCI-H226 lung = tested on: NCI-H226 lung
HOP-92 NSCLC = tested on: HOP-92 NSCLC
BT-549 breast = tested on: BT-549 breast
PC-3 prostate = tested on: PC-3 prostate
HCT-15 colon = tested on: HCT-15 colon
CAKI-1 renal = tested on: CAKI-1 renal
TK-10 renal = tested on: TK-10 renal
LOX IMVI melanoma = tested on: LOX IMVI melanoma
MDA-MB-435 = tested on: MDA-MB-435
MCF7 breast = tested on: MCF7 breast
HCT-116 colon = tested on: HCT-116 colon
SF-539 CNS = tested on: SF-539 CNS
UACC-62 melanoma = tested on: UACC-62 melanoma
SK-MEL-5 melanoma = tested on: SK-MEL-5 melanoma
HT29 colon = tested on: HT29 colon
KM12 colon = tested on: KM12 colon
OVCAR-5 ovarian = tested on: OVCAR-5 ovarian

## C=C1CC[C@@H]2[C@]3(C)COC(c4cn[nH]c4-c4cccc(Cl)c4)O[C@@H]3CC[C@@]2(C)[C@@H]1C/C=C1/C(=O)OCC1O (stereo partly specified)
SK-OV-3 ovarian
  GI50: 16 µM
  TGI: 35.1 µM
NCI-H23 lung
  GI50: 4.36 µM
  TGI: 15.9 µM
OVCAR-3 ovarian
  GI50: 1.93 µM
  TGI: 3.77 µM
IGROV1 ovarian
  GI50: 4.14 µM
  TGI: 15.8 µM
K-562 leukemia
  GI50: 2.41 µM
  TGI: 10.5 µM
SK-MEL-2 melanoma
  GI50: 2.71 µM
  TGI: 8.53 µM
HOP-62 NSCLC
  GI50: 15.3 µM
  TGI: 32 µM
CCRF-CEM leukemia
  GI50: 2.7 µM
  TGI: 11.4 µM
HS 578T breast
  GI50: 9.04 µM
  TGI: 62.7 µM
HL-60(TB) leukemia
  GI50: 2.91 µM
  TGI: 16.3 µM
A549 NSCLC
  GI50: 9.73 µM
  TGI: 30.4 µM
OVCAR-4 ovarian
  GI50: 4.4 µM
  TGI: 45.7 µM
786-0 renal
  GI50: 3.36 µM
  TGI: 11.7 µM
NCI-H522 lung
  GI50: 1.75 µM
  TGI: 3.59 µM
HCC-2998 colon
  GI50: 3.49 µM
  TGI: 11.5 µM
EKVX NSCLC
  GI50: 3.68 µM
  TGI: 13.9 µM
MALME-3M melanoma
  GI50: 1.84 µM
  TGI: 4.26 µM
MOLT-4 leukemia
  GI50: 3.83 µM
  TGI: 18.2 µM
RPMI-8226 leukemia
  GI50: 2.25 µM
  TGI: 7.02 µM
SW-620 colon
  GI50: 2.35 µM
  TGI: 5.96 µM
COLO 205 colon
  GI50: 4.85 µM
  TGI: 19.5 µM
MDA-MB-468 breast
  GI50: 1.88 µM
  TGI: 4.97 µM
OVCAR-8 ovarian
  GI50: 2.39 µM
  TGI: 7.7 µM
SK-MEL-28 melanoma
  GI50: 1.98 µM
  TGI: 4.05 µM
U251 CNS
  GI50: 2.15 µM
  TGI: 5.29 µM
SF-268 CNS
  GI50: 17.3 µM
  TGI: 41.4 µM
M14 melanoma
  GI50: 2.19 µM
  TGI: 5.88 µM
ACHN renal
  GI50: 2.47 µM
  TGI: 6.95 µM
SN12C renal
  GI50: 2.94 µM
  TGI: 10.5 µM
NCI-H460 lung
  GI50: 8.87 µM
  TGI: 25.6 µM
SNB-75 CNS
  GI50: 2.41 µM
  TGI: 12.3 µM
DU-145 prostate
  GI50: 5.01 µM
  TGI: 19.5 µM
SF-295 CNS
  GI50: 4.27 µM
  TGI: 16.1 µM
UACC-257 melanoma
  GI50: 11.2 µM
  TGI: 27 µM
RXF 393 renal
  GI50: 1.73 µM
  TGI: 3.24 µM
A498 renal
  GI50: 18.5 µM
  TGI: 32.6 µM
NCI-H226 lung
  GI50: 1.66 µM
  TGI: 3.21 µM
HOP-92 NSCLC
  GI50: 4.29 µM
  TGI: 22.3 µM
BT-549 breast
  GI50: 2.36 µM
  TGI: 6.03 µM
PC-3 prostate
  GI50: 4.08 µM
  TGI: 30.7 µM
HCT-15 colon
  GI50: 1.79 µM
  TGI: 3.81 µM
CAKI-1 renal
  GI50: 4 µM
  TGI: 14.6 µM
TK-10 renal
  GI50: 12.4 µM
  TGI: 25.7 µM
LOX IMVI melanoma
  GI50: 1.44 µM
  TGI: 2.83 µM
MDA-MB-435
  GI50: 2.47 µM
  TGI: 7.62 µM
MCF7 breast
  GI50: 2.06 µM
  TGI: 9.16 µM
HCT-116 colon
  GI50: 1.84 µM
  TGI: 3.93 µM
SF-539 CNS
  GI50: 1.77 µM
  TGI: 3.36 µM
UACC-62 melanoma
  GI50: 1.69 µM
  TGI: 3.62 µM
SK-MEL-5 melanoma
  GI50: 2.27 µM
  TGI: 5.37 µM
HT29 colon
  GI50: 2.7 µM
  TGI: 6.8 µM
KM12 colon
  GI50: 3.29 µM
  TGI: 13.1 µM
OVCAR-5 ovarian
  GI50: 3.63 µM
  TGI: 14 µM
